Assay [1] concerns the target T1, Prostaglandin G/H synthase 1 (Homo sapiens, UniProt P23219). As to the kind of experiment: Inhibition of COX1 at 400 uM after 5 mins by spectrophotometric analysis.
Assay [2] addresses T2, Prostaglandin G/H synthase 2 (Homo sapiens) (UniProt P35354).
T2 sequence (whole entry): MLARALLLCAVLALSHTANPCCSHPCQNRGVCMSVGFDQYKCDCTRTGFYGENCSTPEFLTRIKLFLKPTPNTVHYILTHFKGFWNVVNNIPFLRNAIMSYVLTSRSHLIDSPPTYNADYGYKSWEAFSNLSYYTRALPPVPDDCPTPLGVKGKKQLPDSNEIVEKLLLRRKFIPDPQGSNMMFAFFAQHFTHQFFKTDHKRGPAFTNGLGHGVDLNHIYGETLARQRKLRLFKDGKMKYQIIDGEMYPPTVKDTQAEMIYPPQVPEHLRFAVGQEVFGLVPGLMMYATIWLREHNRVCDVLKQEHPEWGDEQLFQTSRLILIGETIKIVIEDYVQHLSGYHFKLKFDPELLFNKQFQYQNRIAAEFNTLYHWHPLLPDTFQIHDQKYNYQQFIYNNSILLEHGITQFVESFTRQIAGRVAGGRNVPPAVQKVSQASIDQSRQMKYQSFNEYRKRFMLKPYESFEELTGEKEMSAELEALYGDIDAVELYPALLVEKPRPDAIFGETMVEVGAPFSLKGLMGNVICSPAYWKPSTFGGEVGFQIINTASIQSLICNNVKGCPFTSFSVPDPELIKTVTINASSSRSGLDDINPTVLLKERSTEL
Kind of assay: Inhibition of COX2 at 400 uM after 5 mins by spectrophotometric analysis.

Assay [3] concerns the target T1, Prostaglandin G/H synthase 1. Kind of assay: Inhibition of COX1 after 5 mins by spectrophotometric analysis.
Assay [4] deals with T3, Prostaglandin G/H synthase 2 (Homo sapiens, UniProt P35354).
T3 sequence (P35354 whole entry): T2 sequence (whole entry)
As to the kind of experiment: Inhibition of COX2 after 5 mins by spectrophotometric analysis.

For assay [5], the target named is T3, Prostaglandin G/H synthase 2. As to the kind of experiment: Uncompetitive inhibition of COX2 by Lineweaver-Burk plot analysis.

Some results are limits rather than exact numbers.

T1 sequence (P23219 whole entry): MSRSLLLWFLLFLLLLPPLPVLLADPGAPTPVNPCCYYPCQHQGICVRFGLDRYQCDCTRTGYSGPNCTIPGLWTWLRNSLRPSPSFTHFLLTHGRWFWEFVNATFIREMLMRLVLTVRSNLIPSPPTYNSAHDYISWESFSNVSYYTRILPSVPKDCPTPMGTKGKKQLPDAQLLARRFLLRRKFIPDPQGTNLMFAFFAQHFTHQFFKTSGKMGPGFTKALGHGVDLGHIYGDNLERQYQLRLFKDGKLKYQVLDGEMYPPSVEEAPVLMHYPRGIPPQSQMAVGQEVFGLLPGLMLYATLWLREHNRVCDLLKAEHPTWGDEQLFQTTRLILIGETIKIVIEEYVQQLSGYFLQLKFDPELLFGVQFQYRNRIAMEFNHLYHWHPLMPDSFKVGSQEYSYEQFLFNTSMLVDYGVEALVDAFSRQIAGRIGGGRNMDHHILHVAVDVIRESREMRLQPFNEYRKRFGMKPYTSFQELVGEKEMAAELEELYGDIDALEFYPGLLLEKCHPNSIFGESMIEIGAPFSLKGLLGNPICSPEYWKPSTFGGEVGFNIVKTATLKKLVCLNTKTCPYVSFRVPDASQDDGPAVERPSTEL

On to `COc1cc(/C=C/C(=O)NCCc2c[nH]c3ccc(O)cc23)cc(OC)c1O` [N-SINAPOYL SEROTONIN], for which the values for the inhibition in assay [1] and in assay [2] were 44.9% and 27.2%, respectively. For the same molecule, the IC50 in assay [3] and in assay [4] was over 400 µM throughout.
With `NCCc1c[nH]c2ccc(O)cc12` [SEROTONIN], the IC50 in assay [3] and in assay [4] was over 400 µM in each case.
On to `COc1ccc(/C=C/C(=O)NCCc2c[nH]c3ccc(O)cc23)cc1OC`, for which the inhibition turned out to be 29.9% in assay [1] and 18.2% in assay [2].
In assay [2], `CC(=O)Oc1ccccc1C(=O)O` returned an inhibition of 19.3%.
In the case of `O=C(O)/C=C/c1ccc(O)c(O)c1` [CAFFEIC ACID], the IC50 in assay [3] was over 400 µM.
For the molecule `COc1ccc(/C=C/C(=O)NCCc2c[nH]c3ccc(O)cc23)cc1O`, the inhibition in assay [1] was determined as 7%; in assay [2], 8%.
For the molecule `O=C(/C=C/c1ccc(O)c(O)c1)NCCc1c[nH]c2ccc(O)cc12` [N-CAFFEOYLSEROTONIN], the inhibition turned out to be 40.6% in assay [1] and 70.5% in assay [2]. Moreover, the IC50 in assay [3] is over 400 µM; in assay [4] it was 42.5 µM. The affinity in assay [5] corresponds to a Ki of 65.5 µM.
For the molecule `O=C(/C=C/c1ccc(O)cc1)NCCc1c[nH]c2ccc(O)cc12`, the inhibition was 12.5% in assay [1] and 13.9% in assay [2].
The like results for `O=C(/C=C/c1ccccc1)NCCc1c[nH]c2ccc(O)cc12` were, in that order, 18.2% and 8.2%.
For the molecule `COc1cc(/C=C/C(=O)NCCc2c[nH]c3ccc(O)cc23)ccc1O`, the inhibition came out at 2.7% in assay [1] and 18.8% in assay [2].
Consider `COc1cc(/C=C/C(=O)O)cc(OC)c1O` [SINAPINATE], for which the IC50 in assay [3] was 39.2 µM; in assay [4], 28 µM.
With `COc1ccc(/C=C/C(=O)NCCc2c[nH]c3ccc(O)cc23)cc1`, the results for the inhibition in assay [1] and in assay [2] were 21.3% and 6.5%, respectively.

Values taken from ChEMBL document CHEMBL2010645, “N-Caffeoyl serotonin as selective COX-2 inhibitor” (Bioorg Med Chem Lett, 2012).
